# From patent publication US20210147343A1 (priority 2018, published 2021)
# Structures can show the parent of a compound that is named as a salt.
# Target: T1, mu opioid receptor (MOR) (Homo sapiens, UniProt P35372)
# Test: MOR cAMP agonist assay
# Settings: not given
# T1 sequence (P35372 whole entry): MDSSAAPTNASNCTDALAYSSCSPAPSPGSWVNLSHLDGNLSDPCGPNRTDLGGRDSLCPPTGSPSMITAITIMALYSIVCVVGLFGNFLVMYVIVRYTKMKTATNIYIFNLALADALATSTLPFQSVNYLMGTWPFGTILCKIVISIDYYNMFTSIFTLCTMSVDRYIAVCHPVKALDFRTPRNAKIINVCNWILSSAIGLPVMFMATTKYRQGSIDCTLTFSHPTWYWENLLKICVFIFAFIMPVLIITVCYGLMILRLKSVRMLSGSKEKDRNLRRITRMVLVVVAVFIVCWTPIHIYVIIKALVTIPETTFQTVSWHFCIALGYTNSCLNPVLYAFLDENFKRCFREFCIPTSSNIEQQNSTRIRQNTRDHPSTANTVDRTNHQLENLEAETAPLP
row,SMILES,EC50
1,"CN1Cc2cc(O)ccc2C[C@H]1CNC(=O)[C@@H]1C[C@]1(C)c1ccccc1 [Compound B-50, (1R,2S)—N—(((S)-7-hydroxy-2-methyl-1,2,3,4-tetrahydroisoquinolin-3-yl)methyl)-2-methyl-2-phenylcyclopropane-1-carboxamide]",< 100 nM
2,"CCNC(=O)c1ccc(C[C@@H](CNC(=O)[C@@H]2C[C@@]2(C)c2ccccc2)N(C)C)cc1F [Compound B-23, 4-((S)-2-(dimethylamino)-3-((1R,2R)-2-methyl-2-phenylcyclopropane-1-carboxamido)propyl)-N-ethyl-2-fluorobenzamide]",< 100 nM
3,"CN1Cc2cc(O)ccc2C[C@H]1CNC(=O)[C@@H]1C[C@@]1(C)c1ccccc1 [Compound B-51, (1R,2R)—N—(((S)-7-hydroxy-2-methyl-1,2,3,4-tetrahydroisoquinolin-3-yl)methyl)-2-methyl-2-phenylcyclopropane-1-carboxamide]",< 100 nM
4,"CN(CC(F)(F)F)[C@H](CNC(=O)[C@@H]1C[C@]1(C)c1ccccc1)Cc1ccc(C(=O)NC2CC2)c(F)c1 [Compound B-29, N-cyclopropyl-2-fluoro-4-((S)-2-(methyl(2,2,2-trifluoroethyl)amino)-3-((1R,2S)-2-methyl-2-phenylcyclopropane-1-carboxamido)propyl)benzamide]",< 100 nM
5,"CCNC(=O)c1ccc(C[C@@H](CNC(=O)[C@@H]2C[C@]2(C)c2ccccc2)N(C)C)cc1F [Compound B-34, 4-((S)-2-(dimethylamino)-3-((1R,2S)-2-methyl-2-phenylcyclopropane-1-carboxamido)propyl)-N-ethyl-2-fluorobenzamide]",< 100 nM
6,"CN(C)[C@H](CNC(=O)[C@@H]1C[C@@]1(C)c1ccccc1)Cc1ccc2[nH]c(=O)oc2c1 [Compound B-53, (1R,2R)—N—((S)-2-(dimethylamino)-3-(2-oxo-2,3-dihydrobenzo[d]oxazol-6-yl)propyl)-2-methyl-2-phenylcyclopropane-1-carboxamide]",< 100 nM
7,"CNC(=O)c1ccc(C[C@@H](CNC(=O)[C@H]2C[C@]2(C)c2ccccc2)N(C)C)cc1F [Compound B-22, 4-((S)-2-(dimethylamino)-3-((1S,2S)-2-methyl-2-phenylcyclopropane-1-carboxamido)propyl)-2-fluoro-N-methylbenzamide]",< 100 nM
8,"CC[C@@]1(c2ccccc2)C[C@H]1C(=O)NC[C@H](Cc1ccc(C(=O)NC)c(F)c1)N(C)C [Compound B-21, 4-((S)-2-(dimethylamino)-3-((1R,2R)-2-ethyl-2-phenylcyclopropane-1-carboxamido)propyl)-2-fluoro-N-methylbenzamide]",< 100 nM
9,"CN(C)[C@H](CNC(=O)[C@@H]1C[C@@]1(C)c1ccccc1)Cc1cc2cn[nH]c2cc1Cl [Compound B-52, (1R,2R)—N—((S)-3-(6-chloro-2H-indazol-5-yl)-2-(dimethylamino)propyl)-2-methyl-2-phenylcyclopropane-1-carboxamide]",< 100 nM

# Target: T1, mu opioid receptor (MOR)
# Test: MOR GTPγS agonist assay
# Format: biochemical
# Design: host or cells: CHO-K1
# Settings: membranes of CHO cells over-expressing MOR; SPA beads; read-out: MOR GTPγS EC50
# From the text: Membranes obtained from the stable cell lines over-expressing MOR were subjected to GTPγS assay using SPA beads (Perkin Elmer, Cat #RPNQ0001).
row,SMILES,EC50
1,"COc1ccc(C(=O)NC[C@H](Cc2c(C)cc(O)cc2C)N(C)C)cc1Cl [Compound C-5, (S)-3-chloro-N-(2-(dimethylamino)-3-(4-hydroxy-2,6-dimethylphenyl)propyl)-4-methoxybenzamide]",< 100 nM
2,"CN(C)[C@H](CNC(=O)c1cccc(Cl)c1)Cc1ccc(O)cc1 [Compound C-23, (S)-3-chloro-N-(2-(dimethylamino)-3-(4-hydroxyphenyl)propyl)benzamide]",100 to 1000 nM
3,CN(C)[C@H](CNC(=O)c1ccc(Cl)cc1)Cc1ccc(O)cc1Cl [Compound C-21],> 1000 nM
4,"CN1Cc2cc(O)ccc2C[C@H]1CNC(=O)c1cccc(Cl)c1 [Compound C-36, (S)-3-chloro-N-((7-hydroxy-2-methyl-1,2,3,4-tetrahydroisoquinolin-3-yl)methyl)benzamide]",< 100 nM
5,CNC(=O)c1cc(C)c(C[C@@H](CNC(=O)c2ccc(Cl)cc2C)N(C)C)c(C)c1 [Compound C-15],< 100 nM
6,CNC(=O)c1cc(C)c(C[C@@H](CNC(=O)c2cc(Cl)cc(Cl)c2)N(C)C)c(C)c1 [Compound C-12],< 100 nM
7,CN(CC(F)(F)F)[C@H](CNC(=O)c1ccc(Cl)c(Cl)c1)Cc1ccc2[nH]ncc2c1 [Compound C-63],> 1000 nM
8,CNC(=O)c1cc(C)c(C[C@@H](CNC(=O)c2ccccc2Cl)N(C)C)c(C)c1 [Compound C-10],100 to 1000 nM
9,Cc1cnc(C(=O)NC[C@H](Cc2ccc3n[nH]cc3c2)N(C)C)c(C)c1 [Compound C-52],> 1000 nM
10,"CN(CC1CC1)[C@H](CNC(=O)c1ccc(Cl)c(Cl)c1)Cc1ccc2[nH]ncc2c1 [Compound C-62, (S)-3,4-dichloro-N-(2-((cyclopropylmethyl)(methyl)amino)-3-(1H-indazol-5-yl)propyl)benzamide]",100 to 1000 nM
11,"CNC(=O)c1ccc(C[C@@H](CNC(=O)N2CCc3ccccc3C2)N(C)C)cc1F [Compound C-58, (S)—N-(2-(dimethylamino)-3-(3-fluoro-4-(methylcarbamoyl)phenyl)propyl)-3,4-dihydroisoquinoline-2(1H)-carboxamide]",< 100 nM
12,CNC(=O)c1cc(C)c(C[C@@H](CNC(=O)c2ncc(Cl)cc2Cl)N(C)C)c(C)c1 [Compound C-48],100 to 1000 nM
13,CNC(=O)c1cc(C)c(C[C@@H](CNC(=O)c2ccc(F)c(Cl)c2)N(C)C)c(C)c1 [Compound C-14],< 100 nM
14,"CN(C)[C@H](CNC(=O)c1ccc(Cl)c(Cl)c1)Cc1ccc2n[nH]cc2c1 [Compound C-4, (S)-3,4-dichloro-N-(2-(dimethylamino)-3-(1H-indazol-5-yl)propyl)benzamide]",< 100 nM
15,"CN(C)[C@H](CNC(=O)c1ccc(Cl)c(F)c1)Cc1ccc2n[nH]cc2c1 [Compound C-65, (S)-4-chloro-N-(2-(dimethylamino)-3-(2H-indazol-5-yl)propyl)-3-fluorobenzamide]",< 100 nM
16,CNC(=O)c1cc(C)c(C[C@@H](CNC(=O)c2ncc(C)cc2C)N(C)C)c(C)c1 [Compound C-49],100 to 1000 nM
17,CNC(=O)c1cc(C)c(C[C@@H](CNC(=O)c2ccc(OC)cc2)N(C)C)c(C)c1 [Compound C-17],< 100 nM
18,CNC(=O)c1ccc(C[C@@H](CNC(=O)c2ccc(Cl)c(Cl)c2)N(C)CC2CC2)cc1F [Compound C-38],< 100 nM
19,CNC(=O)c1cc(C)c(C[C@@H](CNC(=O)c2ccc(Cl)cc2Cl)N(C)C)c(C)c1 [Compound C-16],< 100 nM

row,SMILES,EC50
1,CNC(=O)c1cc(C)c(CC(CNC(=O)c2ccccc2C2CC2)N(C)C)c(C)c1 (centres unmarked) [Compound C-43],< 100 nM
2,CN(C)[C@H](CNC(=O)c1ccc(Cl)c(F)c1)Cc1ccc(O)cc1Cl [Compound C-19],100 to 1000 nM
3,CNC(=O)c1cc(C)c(C[C@@H](CNC(=O)c2ccc(Cl)c(F)c2)N(C)C)c(C)c1 [Compound C-13],< 100 nM
4,CNC(=O)c1cc(C)c(C[C@@H](CNC(=O)c2cccc(Cl)c2)N(C)C)c(C)c1 [Compound C-44],< 100 nM
5,Cc1cc(O)cc(C)c1C[C@@H](CNC(=O)c1cc(F)c(Cl)c(F)c1)N(C)C [Compound C-29],< 100 nM
6,"CN1Cc2cc(O)ccc2C[C@H]1CNC(=O)N1CCc2ccccc2C1 [Compound C-53, (S)—N-((7-hydroxy-2-methyl-1,2,3,4-tetrahydroisoquinolin-3-yl)methyl)-3,4-dihydroisoquinoline-2(1H)-carboxamide]",< 100 nM
7,Cc1cc(O)cc(C)c1C[C@@H](CNC(=O)c1cccc(Cl)c1)N(C)C [Compound C-25],< 100 nM
8,CN(C)[C@H](CNC(=O)c1ccc(C2CC2)cc1)Cc1ccc(O)cc1Cl [Compound C-20],> 1000 nM
9,"CN(C)[C@](C)(CNC(=O)c1ccc(Cl)c(Cl)c1)Cc1ccc(O)cc1 [Compound C-3, (S)-3,4-dichloro-N-(2-(dimethylamino)-3-(4-hydroxyphenyl)-2-methylpropyl)benzamide]",> 1000 nM
10,"CNC(=O)c1cc(C)c(C[C@@H](CNC(=O)c2ccc(Cl)c(Cl)c2)N(C)C)c(C)c1 [Compound C-42, (S)-4-(3-(3,4-Dichlorobenzamido)-2-(dimethylamino)propyl)-N,3,5-trimethylbenzamide Hydrochloride]",< 100 nM
11,CNC(=O)c1cc(C)c(C[C@@H](CNC(=O)c2ccc(Cl)cc2)N(C)C)c(C)c1 [Compound C-11],< 100 nM
12,"Cc1cc(O)cc(C)c1C[C@@H](CNC(=O)N1CCc2ccccc2C1)N(C)C [Compound C-55, (S)—N-(2-(dimethylamino)-3-(4-hydroxy-2,6-dimethyphenyl)propyl)-3,4-dihydroisoquinoline-2(1H)-carboxamide]",> 1000 nM
13,"Cc1cc(O)cc(C)c1C[C@@H](CNC(=O)c1ccc(Cl)c(F)c1)N(C)C [Compound C-6, (S)-4-chloro-N-(2-(dimethylamino)-3-(4-hydroxy-2,6-dimethylphenyl)propyl)-3-fluorobenzamide]",< 100 nM
14,CNC(=O)c1ccc(C[C@@H](CNC(=O)c2cccc(Cl)c2)N(C)C)c(Cl)c1 [Compound C-41],< 100 nM
15,CNC(=O)c1cc(C)c(C[C@@H](CNC(=O)c2ccccn2)N(C)C)c(C)c1 [Compound C-46],> 1000 nM
16,"CNC(=O)c1cc(C)c(C[C@@H](CNC(=O)c2cnccn2)N(C)C)c(C)c1 [Compound C-47, (S)—N-(3-(2,6-dimethyl-4-(methylcarbamoyl)phenyl)-2-(dimethylamino)propyl)pyrazine-2-carboxamide]",> 1000 nM
17,CNC(=O)c1cc(C)c(C[C@@H](CNC(=O)c2ccc(C)cc2C)N(C)C)c(C)c1 [Compound C-18],< 100 nM
18,Cc1ccc(C(=O)NC[C@H](Cc2ccc3n[nH]cc3c2)N(C)C)c(C)c1 [Compound C-51],100 to 1000 nM
19,"CN(C)[C@H](CNC(=O)c1ccc(Cl)cc1Cl)Cc1ccc2n[nH]cc2c1 [Compound C-50, (S)-2,4-dichloro-N-(2-(dimethylamino)-3-(1H-indazol-5-yl)propyl) benzamide]",100 to 1000 nM
